Structures can show the parent of a compound that is named as a salt.
Legend:
human MCH-1 receptor = human MCH-1 receptor (Homo sapiens (Human), UniProt Q99705); experiment: Binding Assay for Human Melanin-Concentrating Hormone (MCH-1) Receptor; settings: radioligand displacement, membranes from CHO-K1 cells expressing human MCH-1 receptor; Ki from IC50 by Cheng Prusoff equation; read-out: MCH1 Ki
Method in brief: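 Membranes from CHO-K1 cells stably expressing human MCH-1 incubated 60 min at 25 °C with 1.4 nM tritiated indazolyl-pyridinone radioligand in 50 mM Tris-HCl pH 7.4. Bound counts by filtration and scintillation; IC50 and nH by Hill fit, Ki by Cheng–Prusoff.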

Sequence of human MCH-1 receptor (Q99705 whole entry): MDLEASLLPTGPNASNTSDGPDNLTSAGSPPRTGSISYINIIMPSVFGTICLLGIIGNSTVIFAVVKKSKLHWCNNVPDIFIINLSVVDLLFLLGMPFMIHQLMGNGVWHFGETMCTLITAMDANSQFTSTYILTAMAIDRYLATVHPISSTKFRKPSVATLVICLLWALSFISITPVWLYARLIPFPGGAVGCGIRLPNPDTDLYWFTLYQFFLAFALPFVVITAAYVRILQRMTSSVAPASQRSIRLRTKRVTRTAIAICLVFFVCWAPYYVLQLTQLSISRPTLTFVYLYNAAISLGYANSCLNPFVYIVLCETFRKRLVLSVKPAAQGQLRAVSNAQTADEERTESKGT

Structure (SMILES)	melting point	Ki (human MCH-1 receptor) [µM]
Cn1c2c(c3ccc(-n4ccc(-c5ccc(C(F)(F)F)cn5)cc4=O)cc31)CCNCC2 (as salt: hydrochloride) [Example 3, 1-(6-Methyl-1,2,3,4,5,6-hexahydroazepino[4,5-b]indol-8-yl)-4-(5-(trifluoromethyl)pyridin-2-yl)pyridin-2(1H)-one dihydrochloride]	310 to 312 °C	–
Cn1c2c(c3ccc(-n4ccc(OCc5ccc(C(F)(F)F)nc5)cc4=O)cc31)CCNCC2 (as salt: hydrochloride) [Example 5, 1-(6-Methyl-1,2,3,4,5,6-hexahydroazepino[4,5-b]indol-8-yl)-4-((6-(trifluoromethyl)pyridin-3-yl)methoxy)pyridin-2(1H)-one dihydrochloride]	296 to 300 °C	–
O=c1cc(-c2ccc(C(F)(F)F)cn2)ccn1-c1ccc2c3c([nH]c2c1)CCNCC3 (as salt: hydrochloride) [Example 9, 1-(1,2,3,4,5,6-Hexahydroazepino[4,5-b]indol-8-yl)-4-(5-(trifluoromethyl)pyridin-2-yl)pyridin-2(1H)-one dihydrochloride]	288 to 290 °C	–
Cn1c2c(c3ccc(-n4ncc(OCc5ccc(F)cn5)cc4=O)cc31)CCNCC2 (as salt: hydrochloride) [Example 10, 5-((5-Fluoropyridin-2-yl)methoxy)-2-(6-methyl-1,2,3,4,5,6-hexahydroazepino[4,5-b]indol-8-yl)pyridazin-3(2H)-one dihydrochloride]	250 to 254 °C	–
Cl.Cn1c2c(c3ccc(-n4ccc(-c5ccc(C(F)(F)F)cn5)cc4=O)cc31)CCCNC2 [Example 20]	288 to 296 °C (dec.)	–
Cl.Cn1c2c(c3ccc(-n4ccc(-c5ccc(C(F)(F)F)cc5)cc4=O)cc31)CNCCC2 [Example 26]	264 to 270 °C (dec.)	–
Cl.O=c1cc(-c2ccc(C(F)(F)F)nn2)ccn1-c1ccc2c3c([nH]c2c1)CCCNC3 [Example 37, 1-(1,2,3,4,5,6-Hexahydroazepino[4,3-b]indol-8-yl)-4-(6-(trifluoromethyl)pyridazin-3-yl)pyridin-2(1H)-one hydrochloride]	310 to 315 °C (dec.)	0.0292
Cn1c2c(c3ccc(-n4ccc(OCc5ccccc5)cc4=O)cc31)C(=O)NCCC2 [Example 38]	178 to 181 °C	0.1
Cl.Cn1c2c(c3ccc(-n4ccc(OCc5ccc(F)cn5)cc4=O)cc31)CCNCC2 [Example 40]	194 to 202 °C (dec.)	–
Cl.Cn1c2c(c3ccc(-n4ccc(-c5ccc(C(F)(F)F)cc5)cc4=O)cc31)CCNCC2 [Example 41]	306 to 310 °C (dec.)	–
Cn1c2c(c3ccc(-n4ccc(-c5ccc(C(F)(F)F)nc5)nc4=O)cc31)CNCCC2 [Example 108, 1-(6-Methyl-1,2,3,4,5,6-hexahydroazepino[4,3-b]indol-8-yl)-4-(6-(trifluoromethyl)pyridin-3-yl)pyrimidin-2(1H)-one hydrochloride]	–	0.06
Cn1c2c(c3ccc(-n4ccc(OCc5ncc(F)cc5F)cc4=O)nc31)CCNCC2 [Example 111, 4-((3,5-Difluoropyridin-2-yl)methoxy)-1-(10-methyl-5,6,7,8,9,10-hexahydropyrido[3′,2′:4,5]pyrrolo[2,3-d]azepin-2-yl)pyridin-2(1H)-one hydrochloride]	–	0.071
Cn1c2c(c3ccc(-n4ccc(OCc5ncc(F)cc5F)cc4=O)nc31)CNCCC2 [Example 114, 4-((3,5-Difluoropyridin-2-yl)methoxy)-1-(10-methyl-5,6,7,8,9,10-hexahydropyrido[3′,2′:4,5]pyrrolo[3,2-c]azepin-2-yl)pyridin-2(1H)-one hydrochloride]	–	0.044

Further lines, results first:

melting point	Ki (human MCH-1 receptor) [µM]	Structure (SMILES)
258 to 260 °C	0.006	Cl.O=c1cc(OCc2ccccc2)ccn1-c1ccc2c3c([nH]c2c1)CCNCC3 [Example 7, 4-(Benzyloxy)-1-(1,2,3,4,5,6-hexahydroazepino[4,5-b]indol-8-yl)pyridin-2(1H)-one hydrochloride]
246 to 248 °C	0.0096	CCN1CCc2c(n(C)c3cc(-n4ccc(OCc5ccccc5)cc4=O)ccc23)CC1.Cl [Example 14, 4-(Benzyloxy)-1-(3-ethyl-6-methyl-1,2,3,4,5,6-hexahydroazepino[4,5-b]indol-8-yl)pyridin-2(1H)-one hydrochloride]
256 to 258 °C	0.0104	CC(C)N1CCc2c(n(C)c3cc(-n4ccc(OCc5ccccc5)cc4=O)ccc23)CC1.Cl [Example 15, 4-(Benzyloxy)-1-(3-isopropyl-6-methyl-1,2,3,4,5,6-hexahydroazepino[4,5-b]indol-8-yl)pyridin-2(1H)-one hydrochloride]
152 to 155 °C	0.0072	CC(C)N1CCc2[nH]c3cc(-n4ccc(OCc5ccccc5)cc4=O)ccc3c2CC1.Cl [Example 17, 4-(Benzyloxy)-1-(3-isopropyl-1,2,3,4,5,6-hexahydroazepino[4,5-b]indol-8-yl)pyridin-2(1H)-one hydrochloride]
210 to 218 °C (dec.)	0.0118	Cl.Cn1c2c(c3ccc(-n4ccc(OCc5ccccc5)cc4=O)cc31)CCCNC2 [Example 18, 4-(Benzyloxy)-1-(10-methyl-1,2,3,4,5,10-hexahydroazepino[3,4-b]indol-8-yl)pyridin-2(1H)-one hydrochloride]
268 to 275 °C (dec.)	0.0148	Cl.Cn1c2c(c3ccc(-n4ccc(OCc5ccc(F)cn5)cc4=O)cc31)CCCNC2 [Example 19, 4-((5-Fluoropyridin-2-yl)methoxy)-1-(10-methyl-1,2,3,4,5,10-hexahydroazepino[3,4-b]indol-8-yl)pyridin 2(1H)-one hydrochloride]
283 to 287 °C (dec.)	0.0047	Cl.Cn1c2c(c3ccc(-n4ccc(OCc5ccccc5)cc4=O)cc31)CNCCC2 [Example 21, 4-(Benzyloxy)-1-(6-methyl-1,2,3,4,5,6-hexahydroazepino[4,3-b]indol-8-yl)pyridin-2(1H)-one hydrochloride]
264 to 270 °C (dec.)	0.0047	Cl.Cn1c2c(c3ccc(-n4ccc(-c5ccc(C(F)(F)F)cn5)cc4=O)cc31)CNCCC2 [Example 23, 1-(6-Methyl-1,2,3,4,5,6-hexahydroazepino[4,3-b]indol-8-yl)-4-(5-(trifluoromethyl)pyridin-2-yl)pyridin-2(1H)-one hydrochloride]
274 to 280 °C (dec.)	0.0053	Cl.Cn1c2c(c3ccc(-n4ccc(-c5ccc(C(F)(F)F)nc5)cc4=O)cc31)CNCCC2 [Example 27, 1-(6-Methyl-1,2,3,4,5,6-hexahydroazepino[4,3-b]indol-8-yl)-4-(6-(trifluoromethyl)pyridin-3-yl)pyridin-2(1H)-one hydrochloride]
248 to 252 °C (dec.)	0.0109	Cl.Cn1c2c(c3ccc(-n4ccc(-c5ccc(C(F)(F)F)nn5)cc4=O)cc31)CNCCC2 [Example 28, 1-(6-Methyl-1,2,3,4,5,6-hexahydroazepino[4,3-b]indol-8-yl)-4-(6-(trifluoromethyl)pyridazin-3-yl)pyridin-2(1H)-one hydrochloride]
250 to 255 °C (dec.)	0.0049	CSc1ccc(-c2ccn(-c3ccc4c5c(n(C)c4c3)CCCNC5)c(=O)c2)cc1.Cl [Example 32, 1-(6-Methyl-1,2,3,4,5,6-hexahydroazepino[4,3-b]indol-8-yl)-4-(4-(methylthio)phenyl)pyridin-2(1H)-one hydrochloride]
245 to 250 °C (dec.)	0.0175	Cc1ccc(-c2ccn(-c3ccc4c5c(n(C)c4c3)CCCNC5)c(=O)c2)cn1.Cl [Example 33, 1-(6-Methyl-1,2,3,4,5,6-hexahydroazepino[4,3-b]indol-8-yl)-4-(6-methylpyridin-3-yl)pyridin-2(1H)-one hydrochloride]
310 to 320 °C (dec.)	0.0122	Cl.O=c1cc(-c2ccc(C(F)(F)F)cn2)ccn1-c1ccc2c3c([nH]c2c1)CCCNC3 [Example 36, 1-(1,2,3,4,5,6-Hexahydroazepino[4,3-b]indol-8-yl)-4-(5-(trifluoromethyl)pyridin-2-yl)pyridin-2(1H)-one hydrochloride]
–	0.0097	Cn1c2c(c3ccc(-n4ccc(CCc5ccccc5)nc4=O)cc31)CNCCC2 [Example 107, 1-(6-Methyl-1,2,3,4,5,6-hexahydroazepino[4,3-b]indol-8-yl)-4-phenethylpyrimidin-2(1H)-one hydrochloride]
–	0.0096	Cn1c2c(c3ccc(-n4ccc(OCc5ccc(Cl)cc5)cc4=O)nc31)CCNCC2 [Example 109, 4-(4-Chlorobenzyloxy)-1-(10-methyl-5,6,7,8,9,10-hexahydropyrido[3′,2′:4,5]pyrrolo[2,3-d]azepin-2-yl)pyridin-2(1H)-one hydrochloride]
–	0.012	Cn1c2c(c3ccc(-n4ccc(OCc5ccc(F)cc5)cc4=O)nc31)CCNCC2 [Example 110, 4-(4-Fluorobenzyloxy)-1-(10-methyl-5,6,7,8,9,10-hexahydropyrido[3′,2′:4,5]pyrrolo[2,3-d]azepin-2-yl)pyridin-2(1H)-one hydrochloride]
–	0.0089	Cn1c2c(c3ccc(-n4ccc(OCc5ccc(F)cc5)cc4=O)nc31)CNCCC2 [Example 112, 4-(4-Fluorobenzyloxy)-1-(10-methyl-5,6,7,8,9,10-hexahydropyrido[3′,2′:4,5]pyrrolo[3,2-c]azepin-2-yl)pyridin-2(1H)-one hydrochloride]
–	0.0059	Cn1c2c(c3ccc(-n4ccc(OCc5ccc(Cl)cc5)cc4=O)nc31)CNCCC2 [Example 113, 4-(4-Chlorobenzyloxy)-1-(10-methyl-5,6,7,8,9,10-hexahydropyrido[3′,2′:4,5]pyrrolo[3,2-c]azepin-2-yl)pyridin-2(1H)-one hydrochloride]

Reference: US8637501B2, “Azinone-substituted azepino[b]indole and pyrido-pyrrolo-azepine MCH-1 antagonists, methods of making, and use thereof” (Albany Molecular Research, Inc., priority 2009, dated 2014)
